Measurements from ChEMBL document CHEMBL1147593, “Design and synthesis of benzoxazole derivatives as novel melatoninergic ligands” (Bioorg Med Chem Lett, 2004).

Columns and labels:
[1] = target: Melatonin receptor type 1A (Homo sapiens, UniProt P48039); assay: Binding of 2-[125I]iodomelatonin to membrane preparations of NIH3T3 cells stably expressing human Melatonin receptor type 1A; type: cell membranes
[2] = target: T1, Melatonin receptor type 1B (Homo sapiens, UniProt P49286); assay: Binding of 2-[125I]iodomelatonin to membrane preparations of NIH3T3 cells stably expressing human Melatonin receptor type 1B; type: cell membranes
T1 sequence (P49286 whole entry): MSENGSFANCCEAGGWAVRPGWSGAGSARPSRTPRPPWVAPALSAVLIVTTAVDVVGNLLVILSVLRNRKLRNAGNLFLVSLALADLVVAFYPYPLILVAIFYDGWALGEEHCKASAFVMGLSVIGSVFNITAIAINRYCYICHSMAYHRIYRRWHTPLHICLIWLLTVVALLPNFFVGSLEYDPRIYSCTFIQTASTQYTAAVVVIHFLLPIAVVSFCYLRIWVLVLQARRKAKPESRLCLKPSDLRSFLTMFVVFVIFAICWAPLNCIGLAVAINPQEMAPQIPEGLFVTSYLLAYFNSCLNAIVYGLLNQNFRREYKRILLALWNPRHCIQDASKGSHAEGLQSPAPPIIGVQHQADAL

Melatonin receptor type 1A, sequence (P48039 whole entry): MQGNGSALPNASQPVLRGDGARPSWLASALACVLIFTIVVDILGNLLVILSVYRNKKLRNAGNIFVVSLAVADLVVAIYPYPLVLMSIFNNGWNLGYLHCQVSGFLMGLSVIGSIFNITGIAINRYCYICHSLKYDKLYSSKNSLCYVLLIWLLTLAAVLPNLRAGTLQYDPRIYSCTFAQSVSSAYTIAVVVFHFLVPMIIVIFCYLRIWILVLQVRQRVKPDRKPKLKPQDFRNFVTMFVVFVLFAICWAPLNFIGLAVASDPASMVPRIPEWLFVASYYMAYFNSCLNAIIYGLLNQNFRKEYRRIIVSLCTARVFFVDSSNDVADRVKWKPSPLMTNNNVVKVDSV

| SMILES | Ki [1] | Ki [2] |
| --- | --- | --- |
| O=C(NC[C@@H]1C[C@H]1c1cccc2nc(CCCCc3ccccc3)oc12)C1CC1 | 0.05 nM | 0.48 nM |
| CCC(=O)NC[C@@H]1C[C@H]1c1cccc2nc(CCCCc3ccccc3)oc12 | 0.05 nM | 0.07 nM |
| CCCC(=O)NC[C@@H]1C[C@H]1c1cccc2nc(CCCCc3ccccc3)oc12 | 0.05 nM | 0.24 nM |
| CCC(=O)NC[C@@H]1C[C@H]1c1cccc2nc(C(C)C)oc12 | 4.9 nM | 0.32 nM |
| CCCc1nc2cccc([C@@H]3C[C@H]3CNC(=O)C3CC3)c2o1 | 0.18 nM | 0.14 nM |
| CC(=O)NC[C@@H]1C[C@H]1c1cccc2nc(CCCCc3ccccc3)oc12 | 0.05 nM | 0.37 nM |
| CCCC(=O)NC[C@@H]1C[C@H]1c1cccc2nc(CCC)oc12 | 0.94 nM | 0.04 nM |
| CCCc1nc2cccc([C@@H]3C[C@H]3CNC(=O)NCC)c2o1 | 3.5 nM | 1 nM |
| CCNC(=O)NC[C@@H]1C[C@H]1c1cccc2nc(C(C)C)oc12 | 11.8 nM | 12.6 nM |

Second part, the compound after the results:

| Ki [1] | Ki [2] | SMILES |
| --- | --- | --- |
| 0.05 nM | 0.19 nM | CCc1nc2cccc([C@@H]3C[C@H]3CNC(=O)C3CC3)c2o1 |
| 0.2 nM | 0.75 nM | CCc1nc2cccc([C@@H]3C[C@H]3CNC(=O)C(C)C)c2o1 |
| 4.9 nM | 0.28 nM | CCCc1nc2cccc([C@@H]3C[C@H]3CNC(=O)C(C)C)c2o1 |
| 1.3 nM | 2.5 nM | CC(C)C(=O)NC[C@@H]1C[C@H]1c1cccc2nc(C(C)C)oc12 |
| 0.05 nM | 0.33 nM | CCCC(=O)NC[C@@H]1C[C@H]1c1cccc2nc(CC)oc12 |
| 0.35 nM | 0.88 nM | CCc1nc2cccc([C@@H]3C[C@H]3CNC(C)=O)c2o1 |
| 0.05 nM | 0.44 nM | CCC(=O)NC[C@@H]1C[C@H]1c1cccc2nc(CC)oc12 |
